As usually defined, the IC50 is the concentration that gives 50% inhibition. Usually half-life stands for how long it takes for the measured level to halve.

One series has as its system HCT-116. The series can be described thus: HCT-116 cell viability (Real-Time-Glo). The class given is cell-based. To be noted: Homo sapiens, 72 hr, read-out: IC50, Cell line: HCT-116. As for the experimental part: To determine the plating density for cell viability assays, for each cell line, cells were counted and diluted to final densities of 2.5, 5, 10 and 20 thousand per 100 μl of their respective growth media per well in 96 well plates. A Promega Real-Time-Glo cell viability kit was used to determine the optimal concentration for cell plating so that each cell line would be within the linear part of its growth curve after 72 hrs in culture. […] Test compounds were then added at different concentrations for the creation of six-point curve and cell density was determined using the Promega Real-Time-Glo cell viability kit after 24, 48, and 72 hrs in culture.

The nature of series [1]: In-vitro half-life in mouse liver microsomes. The class given is in vitro ADME. The conditions noted are these: Mouse liver microsomes 0.5 mg/mL; 1 μg/mL drug; NRS; read-out: Metabolic Half-life. In outline:
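Compound at 1 μg/mL final was incubated with 0.5 mg/mL liver microsomes plus NADPH regenerating system at 37° C, sampled in duplicate at 0–60 min. Remaining parent was measured by LC-MS/MS, and half-life was calculated from first-order log-linear regression of % remaining versus time.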
(In general: Microsomes from liver hold many membrane-bound enzymes, among them those of drug oxidation.)

The target in a further series is T1, CYP2C9 (Homo sapiens, UniProt P11712).
T1 construct: from tissue; host or cells: pooled human liver microsomes
T1 sequence (P11712 whole entry): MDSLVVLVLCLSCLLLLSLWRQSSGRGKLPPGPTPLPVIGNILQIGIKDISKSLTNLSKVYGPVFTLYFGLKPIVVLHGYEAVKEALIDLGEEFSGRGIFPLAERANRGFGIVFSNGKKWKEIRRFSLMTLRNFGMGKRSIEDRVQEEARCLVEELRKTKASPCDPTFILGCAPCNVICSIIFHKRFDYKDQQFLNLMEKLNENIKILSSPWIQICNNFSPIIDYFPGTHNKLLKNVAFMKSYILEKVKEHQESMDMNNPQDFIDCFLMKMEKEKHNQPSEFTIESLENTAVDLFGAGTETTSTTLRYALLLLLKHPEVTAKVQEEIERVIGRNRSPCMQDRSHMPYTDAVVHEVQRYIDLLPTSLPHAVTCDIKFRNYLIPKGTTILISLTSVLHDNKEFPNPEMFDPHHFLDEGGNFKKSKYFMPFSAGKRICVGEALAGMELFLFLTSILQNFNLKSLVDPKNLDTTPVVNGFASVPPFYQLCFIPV
Kind of series: CYP-direct inhibition, CYP2C9. Type of series: in vitro ADME. Here is the method:
(§1) Many drugs inhibit cytochrome P450 enzymes to cause clinically significant changes in the pharmacokinetics of other drugs. In vitro cytochrome P450 inhibition, can provide crucial information in evaluating potential clinical drug-drug interactions and is useful for focusing in vivo tests to areas of concern. The cytochrome P450 inhibition assay was developed by preparing a working cocktail solution consisting of six probe substrates 10 μM ethoxy-resorufin (CYP1A2), 100 μM rosiglitazone (CYP2C8), 50 μM diclofenac (CYP2C9), 300 μM S-mephenytoin (CYP2C19), 50 μM dextromethorphan (CYP2D6), and 20 μM midazolam (CYP3A4). A mixture solution consists of 140 uL of 0.286 mg/mL of pooled human liver microsome working solution and 20 uL working solutions of test articles, standard control inhibitors, or positive control placebo and 20 uL of substrate cocktail mixture working solution was prepared. The mixture solution was pre-warm in a gentle shaking bath at 37±2° C. for 5 minutes. The enzymatic reaction started by adding 20 uL of NRS working solution to the mixture solution and incubated for 10 minutes at 37±2° C. To stop the reaction, an addition of 400 μL cold stop solution (acetonitrile containing 50 ng/mL Tolbutamide as an internal standard (I.Std.) was added to the mixture solution. The final concentration of test article, inhibitors, substrates, and cofactors are noted in Table 0.1 below. Two individual samples were prepared for each test compound. The extracted samples were vortexed and then centrifuged at 4500 rpm for 7 minutes using Eppendorf Centrifuge 5910R. 200 uL of supernatant was diluting with 200 uL of 50% Methanol into 96-DW plate for LC/MS/MS analysis
(§2) Concentration-response plots are used to determine the effects of an inhibitor on an enzymatic reaction. A typical concentration-response plot provides fractional activity (Y axis) is plotted as a function of log inhibitor concentration (X axis). The data are fitted using a standard Sigmoidal dose-response equation which is also called a […] logistic equation. The concentration of compound that results in 50% inhibition of maximal activity is termed as the IC50 (inhibitor concentration yielding 50% inhibition). IC50 value is calculated using Prism GraphPad software, version 9. […].
(§3) Cytochrome P450 inhibition of a drug is a key factor in determining pharmacokinetic drug-drug interactions. The objective of this study was to evaluate the inhibition potential of G9a inhibitors on six (6) major human cytochrome P450 enzymes, including CYP1A2, CYP2C8, CYP2C9, CYP2C19, CYP2D6, and CYP3A4. Inhibition was determined by using a substrate cocktail and analyzing the rate of specific metabolites formation. The cytochrome P450 inhibition assay was developed using a cocktail consisting of six (6) probe substrates ethoxy-resorufin (CYP1A2), rosiglitazone (CYP2C8), diclofenac (CYP2C9), S-mephenytoin (CYP2C19), dextromethorphan (CYP2D6), and midazolam (CYP3A4). The cocktail was incubated in human liver microsome with NADPH regenerating system (NRS) in a shaking bath at 37±2° C. The formation of specific metabolites was monitored by LC/MS/MS. Test compound was added to the cocktail-liver microsome mixture at varying concentrations and its effect on cytochrome P450 activity was determined by analyzing the rate of specific metabolite formation. The percent inhibition was calculated and plotted with reference to the concentration, and the IC50 value for inhibition was derived by fitting the data with a using log(inhibitor) vs. normalized response with variable slope least squares fit by Graphpad Prism® software. […].

The target of the next series is T2, CYP2C19 (Homo sapiens, UniProt P33261).
T2 construct: from tissue; host or cells: pooled human liver microsomes
T2 sequence (P33261 whole entry): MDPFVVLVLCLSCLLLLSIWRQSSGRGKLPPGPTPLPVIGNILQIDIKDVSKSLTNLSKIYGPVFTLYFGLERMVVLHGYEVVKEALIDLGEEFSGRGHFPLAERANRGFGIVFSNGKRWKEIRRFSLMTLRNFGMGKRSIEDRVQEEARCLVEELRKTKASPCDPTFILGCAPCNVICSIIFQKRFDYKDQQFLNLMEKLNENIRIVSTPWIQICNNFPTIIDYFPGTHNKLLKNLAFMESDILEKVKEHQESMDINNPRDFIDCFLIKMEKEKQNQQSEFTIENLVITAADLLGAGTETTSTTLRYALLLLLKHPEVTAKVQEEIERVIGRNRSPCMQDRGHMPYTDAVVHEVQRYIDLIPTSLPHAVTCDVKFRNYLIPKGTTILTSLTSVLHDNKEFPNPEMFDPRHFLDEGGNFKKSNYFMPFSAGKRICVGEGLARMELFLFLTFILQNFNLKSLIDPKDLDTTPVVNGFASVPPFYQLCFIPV
Kind of series: CYP-direct inhibition, CYP2C19. Type of series: in vitro ADME. As for the experimental part: as §1, §2, §3

A value given as a limit tells only on which side of the number the result lay.

For the molecule `COc1cc2c(NC3CCN(C(C)C)CC3)nc(-n3ccnc3)nc2cc1OCCCN1CCCC1` [Compound 156, 2-(1H-imidazol-1-yl)-N-(1-isopropylpiperidin-4-yl)-6-methoxy-7-(3-(pyrrolidin-1-yl)propoxy)quinazolin-4-amine], the IC50 in the series on HCT-116 was 1 to 5 µM; against CYP2C9 it was over 100 µM; at CYP2C19 it was over 100 µM. In addition, the half-life at 1 μg/mL in series [1] was determined as 0.988 h.
`COc1cc2c(NC3CCOCC3)nc(N3CCCC3)nc2cc1OCCCN1CCCC1` [Compound 164, 6-methoxy-2-(pyrrolidin-1-yl)-7-(3-(pyrrolidin-1-yl)propoxy)-N-(tetrahydro-2H-pyran-4-yl)quinazolin-4-amine]: the values for the IC50 in the series on HCT-116, against CYP2C9 and against CYP2C19 were 1 to 5 µM, over 100 µM and over 100 µM, respectively. The half-life at 1 μg/mL in series [1] is over 1 h.
Take `COc1cc2c(NC3CCOCC3)nc(N3CCC3)nc2cc1OCCCN1CCCC1` [Compound 174, 2-(azetidin-1-yl)-6-methoxy-7-(3-(pyrrolidin-1-yl)propoxy)-N-(tetrahydro-2H-pyran-4-yl)quinazolin-4-amine]: the IC50 is 1 to 5 µM in the series on HCT-116, over 100 µM against CYP2C9 and over 100 µM against CYP2C19. The half-life at 1 μg/mL in series [1] is over 1 h.
Regarding `COc1cc2c(NC3CCN(C(C)C)CC3)nc(N3CCC3)nc2cc1OCCCN1CCCC1` [Compound 234, 2-(azetidin-1-yl)-N-(1-isopropylpiperidin-4-yl)-6-methoxy-7-(3-(pyrrolidin-1-yl)propoxy)quinazolin-4-amine], the IC50 was 1 to 5 µM with HCT-116, over 100 µM at CYP2C9 and over 100 µM at CYP2C19. The half-life at 1 μg/mL in series [1] was over 1 h.
As for `COc1cc2c(NC3CCN(C(C)C)CC3)nc(C#N)nc2cc1OCCCN1CCCC1` [Compound 235, 4-((1-isopropylpiperidin-4-yl)amino)-6-methoxy-7-(3-(pyrrolidin-1-yl)propoxy)quinazoline-2-carbonitrile], the IC50 with HCT-116 is 1 to 5 µM; against CYP2C9, over 100 µM; against CYP2C19, over 100 µM. Also, in series [1], the half-life at 1 μg/mL was over 1 h.

Source of the values: patent US11485728B2, “Small molecules for the treatment of autoimmune diseases and cancer” (Athos Therapeutics, Inc., priority 2020, dated 2022).
